# Laboratory results reported in ChEMBL document CHEMBL1255373, “In vitro antibacterial activity of CE-156811, a novel analog derived from hygromycin A” (2008).
# Assays:
# Type in all cases: functional
# Staphylococcus aureus [1] = test: Antibacterial activity against methicillin-susceptible Staphylococcus aureus clinical isolate by broth microdilution method
# Staphylococcus aureus [2] = test: Antibacterial activity against methicillin-resistant Staphylococcus aureus clinical isolate by broth microdilution method
# Staphylococcus aureus [3] = test: Antibacterial activity against glycopeptide-intermediate Staphylococcus aureus clinical isolate by broth microdilution method
# [4] = system: Staphylococcus epidermidis; test: Antibacterial activity against methicillin-susceptible Staphylococcus epidermidis clinical isolate by broth microdilution method
# Staphylococcus = test: Antibacterial activity against coagulase-negative Staphylococcus clinical isolate by broth microdilution method
# Enterococcus faecalis [5] = test: Antibacterial activity against vancomycin-susceptible Enterococcus faecalis clinical isolate by broth microdilution method
# Enterococcus faecalis [6] = test: Antibacterial activity against vancomycin-resistant Enterococcus faecalis clinical isolate by broth microdilution method
# Enterococcus faecium [7] = test: Antibacterial activity against vancomycin-susceptible Enterococcus faecium clinical isolate by broth microdilution method
# Enterococcus faecium [8] = test: Antibacterial activity against vancomycin-resistant Enterococcus faecium clinical isolate by broth microdilution method
# Streptococcus pneumoniae [9] = test: Antibacterial activity against penicillin-susceptible Streptococcus pneumoniae clinical isolate by broth microdilution method
# Streptococcus pneumoniae [10] = test: Antibacterial activity against penicillin-nonsusceptible Streptococcus pneumoniae clinical isolate by broth microdilution method
# Streptococcus pyogenes = test: Antibacterial activity against Streptococcus pyogenes clinical isolate by broth microdilution method
# Listeria monocytogenes = test: Antibacterial activity against Listeria monocytogenes clinical isolate by broth microdilution method
# Corynebacterium sp. = test: Antibacterial activity against Corynebacterium sp. by broth microdilution method
# Neisseria sp. = test: Antibacterial activity against Neisseria sp. by broth microdilution method
# Moraxella catarrhalis = test: Antibacterial activity against Moraxella catarrhalis clinical isolate by broth microdilution method
# Haemophilus influenzae = test: Antibacterial activity against Haemophilus influenzae clinical isolate by broth microdilution method
# Citrobacter koseri = test: Antibacterial activity against Citrobacter diversus clinical isolate by broth microdilution method
# Citrobacter freundii = test: Antibacterial activity against Citrobacter freundii clinical isolate by broth microdilution method
# Klebsiella aerogenes = test: Antibacterial activity against Enterobacter aerogenes clinical isolate by broth microdilution method
# Enterobacter cloacae = test: Antibacterial activity against Enterobacter cloacae clinical isolate by broth microdilution method
# Escherichia coli = test: Antibacterial activity against Escherichia coli clinical isolate by broth microdilution method
# Klebsiella oxytoca = test: Antibacterial activity against Klebsiella oxytoca clinical isolate by broth microdilution method
smiles,measurement,setting,value
C/C(=C\c1cc(F)c(OC[C@H](F)C2CC2)cc1F)C(=O)N[C@@H]1[C@H](O)[C@@H](O)[C@H]2OCO[C@H]2[C@@H]1O,MIC50,Staphylococcus aureus [1],0.5 µg/mL
same,MIC90,Staphylococcus aureus [1],1 µg/mL
same,MIC50,Staphylococcus aureus [2],0.5 µg/mL
same,MIC90,Staphylococcus aureus [2],0.5 µg/mL
same,MIC,Staphylococcus aureus [3],0.125 µg/mL
same,MIC50,[4],0.12 µg/mL
same,MIC90,[4],0.25 µg/mL
same,MIC50,Staphylococcus,1 µg/mL
same,MIC90,Staphylococcus,2 µg/mL
same,MIC50,Enterococcus faecalis [5],1 µg/mL
same,MIC90,Enterococcus faecalis [5],2 µg/mL
same,MIC50,Enterococcus faecalis [6],1 µg/mL
same,MIC90,Enterococcus faecalis [6],2 µg/mL
same,MIC50,Enterococcus faecium [7],1 µg/mL
same,MIC90,Enterococcus faecium [7],2 µg/mL
same,MIC50,Enterococcus faecium [8],1 µg/mL
same,MIC90,Enterococcus faecium [8],2 µg/mL
same,MIC50,Streptococcus pneumoniae [9],0.25 µg/mL
same,MIC90,Streptococcus pneumoniae [9],0.5 µg/mL
same,MIC50,Streptococcus pneumoniae [10],0.25 µg/mL
same,MIC90,Streptococcus pneumoniae [10],0.5 µg/mL
same,MIC,Streptococcus pyogenes,0.5 µg/mL
same,MIC50,Streptococcus pyogenes,0.5 µg/mL
same,MIC90,Streptococcus pyogenes,1 µg/mL
same,MIC,Listeria monocytogenes,4 µg/mL
same,MIC50,Listeria monocytogenes,4 µg/mL
same,MIC90,Listeria monocytogenes,8 µg/mL
same,MIC50,Corynebacterium sp.,1 µg/mL
same,MIC90,Corynebacterium sp.,1 µg/mL
same,MIC50,Neisseria sp.,4 µg/mL
same,MIC90,Neisseria sp.,8 µg/mL
same,MIC50,Moraxella catarrhalis,2 µg/mL
same,MIC90,Moraxella catarrhalis,4 µg/mL
same,MIC50,Haemophilus influenzae,4 µg/mL
same,MIC90,Haemophilus influenzae,8 µg/mL
same,MIC50,Citrobacter koseri,> 64 µg/mL
same,MIC90,Citrobacter koseri,> 64 µg/mL
same,MIC50,Citrobacter freundii,> 64 µg/mL
same,MIC90,Citrobacter freundii,> 64 µg/mL
same,MIC50,Klebsiella aerogenes,> 64 µg/mL
same,MIC90,Klebsiella aerogenes,> 64 µg/mL
same,MIC50,Enterobacter cloacae,> 64 µg/mL
same,MIC90,Enterobacter cloacae,> 64 µg/mL
same,MIC50,Escherichia coli,> 64 µg/mL
same,MIC90,Escherichia coli,> 64 µg/mL
same,MIC50,Klebsiella oxytoca,> 64 µg/mL
same,MIC90,Klebsiella oxytoca,> 64 µg/mL
